Assay results from publication PMC9037349, “Elucidation of molecular interactions of theaflavin monogallate with camel milk lactoferrin: detailed spectroscopic and dynamic simulation studies” (RSC Advances, 2021).

Biological target: T1, camel milk lactoferrin (Camelus dromedarius, UniProt Q9TUM0)
T1 construct: gene LTF; lactoferrin isolated and purified from camel milk
T1 sequence (Q9TUM0 20-708): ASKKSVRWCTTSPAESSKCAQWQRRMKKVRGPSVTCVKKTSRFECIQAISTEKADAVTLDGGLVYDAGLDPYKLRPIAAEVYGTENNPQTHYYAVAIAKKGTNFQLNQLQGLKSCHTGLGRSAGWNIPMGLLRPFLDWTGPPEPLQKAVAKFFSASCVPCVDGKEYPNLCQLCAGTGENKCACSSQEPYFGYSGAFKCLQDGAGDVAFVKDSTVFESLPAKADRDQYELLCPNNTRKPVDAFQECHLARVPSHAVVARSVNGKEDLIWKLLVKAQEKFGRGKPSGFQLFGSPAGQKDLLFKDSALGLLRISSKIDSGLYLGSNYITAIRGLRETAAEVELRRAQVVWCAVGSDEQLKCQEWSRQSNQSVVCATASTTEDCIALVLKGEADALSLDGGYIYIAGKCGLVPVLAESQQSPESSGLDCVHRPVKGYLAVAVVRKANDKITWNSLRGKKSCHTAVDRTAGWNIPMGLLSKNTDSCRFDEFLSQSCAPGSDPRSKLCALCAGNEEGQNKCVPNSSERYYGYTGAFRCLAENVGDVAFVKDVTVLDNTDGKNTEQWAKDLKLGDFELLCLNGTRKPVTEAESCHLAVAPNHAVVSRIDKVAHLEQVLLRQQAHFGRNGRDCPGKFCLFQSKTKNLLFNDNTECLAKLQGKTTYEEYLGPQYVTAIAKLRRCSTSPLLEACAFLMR
Assay: intrinsic fluorescence quenching titration (static; modified Stern-Volmer, […] K), supported by FRET, ANS fluorescence and CD
Format: binding
Details: read-out: K a × 10^4 (M^-1) (converted)

- Kd: 23.4 µM
SMILES: O=C(O[C@@H]1Cc2c(O)cc(O)cc2O[C@@H]1c1cc(O)c(=O)c2c(O)c(O)cc([C@H]3Oc4cc(O)cc(O)c4C[C@H]3O)c2c1)c1cc(O)c(O)c(O)c1 [theaflavin monogallate]
